# Experimental data reported in US20130095094A1, “ASSAY” (University of Leicester, priority 2010, published 2013).
# B1: flagellin: S. typhimurium flagellin purchased from Invivogen, TLR5 standard (protein, UniProt P06179 2-495, looked up)
# Flagellin: AQVINTNSLSLLTQNNLNKSQSALGTAIERLSSGLRINSAKDDAAGQAIANRFTANIKGLTQASRNANDGISIAQTTEGALNEINNNLQRVRELAVQSANSTNSQSDLDSIQAEITQRLNEIDRVSGQTQFNGVKVLAQDNTLTIQVGANDGETIDIDLKQINSQTLGLDTLNVQQKYKVSDTAATVTGYADTTIALDNSTFKASATGLGGTDQKIDGDLKFDDTTGKYYAKVTVTGGTGKDGYYEVSVDKTNGEVTLAGGATSPLTGGLPATATEDVKNVQVANADLTEAKAALTAAGVTGTASVVKMSYTDNNGKTIDGGLAVKVGDDYYSATQNKDGSISINTTKYTADDGTSKTALNKLGGADGKTEVVSIGGKTYAASKAEGHNFKAQPDLAEAAATTTENPLQKIDAALAQVDTLRSDLGAVQNRFNSAITNLGNTVNNLTSARSRIEDSDYATEVSNMSRAQILQQAGTSVLAQANQVPQNVLSLLR
# Legend:
# [1] = test system: HEK-293 cells transfected with CD14 alone; conditions: 10 μg/ml, positive control; cited from earlier work
# human TLR-2 = biological target: T1, human TLR-2 (Homo sapiens, UniProt O60603); experiment: TLR-transfection NF-κB reporter (pELAM) assay, HEK-293 cells transfected with TLR-2 and CD14; assay type: cell-based
# T1 construct: host or cells: HEK-293
# Experimental: (§1) For transfection assays, human embryonic kidney (HEK)-293 cells were plated in 96 well plates at 10^4 cells per well and transfected after 24 h using Genejuice (Novagen) according to manufacturer's instructions. The following amounts of constructs were added to each well: 30 ng of human TLR-2, TLR-5 or TLR-4 (co-expressing MD-2), 30 ng of pCD14 and 10 ng of NF-κB-sensitive luciferase-reporter construct (pELAM). Cells were grown for 3 days post transfection prior to 18 h challenge. Promoter expression was calculated as fold induction relative to cells cultured in medium alone +/−SD. Endogenous expression of TLRs in HEK-293 has been ruled out by RT-PCR by the inventor.
# (§2) Log-transformed PAMP concentrations were then plotted against fold-induction of NF-κB reporter to generate a standard curve. […] For example, results presented as 200 ng/g BLP-equivalent means that each gramme of food contains TLR-2-stimulants with a capacity to stimulate TLR-2-signalling equal to that of 200 ng Pam3CSK4. Food extracts were measured at 1:10 dilution in DMEM/10% FCS in duplicate. If signals exceeded the range of the standard curve, further dilutions were prepared and reassayed.
# Samples were then maintained at 100 ° C. for 1 -120 min, before cooling, diluting 1:10 in DMEM/10% FCS and applying to HEK-293 cells transfected with TLR-2 or TLR-4/MD2 for measurement of capacity to induce TLR-signalling as described above. […] Samples were then neutralised by addition of NaOH solution and applied to TLR-transfected HEK-293 cells as described above.
# As a negative control, parallel samples were supplemented with an equal molarity of NaCl to account for increased salinity of samples due to acid/base neutralisation. […] Control samples were also heat-treated for 10 minutes.
# TLR-stimulants were quantified in both whole heat-treated saliva (100° C. for 10 minutes), intended to reflect total bacteria-associated TLR-stimulants, and in saliva diluted 1:10 in PBS and filter-sterilised (0.22 μm, Acrodisc), intended to reflect soluble TLR-stimulants in human saliva. A recently developed bioassay based upon the measurement of NF-κB-dependent reporter activation in TLR-deficient HEK-293 cells transfected with human TLR2, TLR4/MD2 or TLR5, and callibrated with TLR2-, TLR4- or TLR5-stimulating standards (Erridge et al., 2010, Public Library of Science One 5, e9125), was used to quantify TLR-stimulants in saliva samples. Briefly, cells were plated in 96-well plates at 2×10^4 cells per well and transfected after 24 h using Genejuice (Novagen). Amounts of construct per well were 30 ng of human TLR2, TLR4 (co-expressing MD-2) or TLR5 (Invivogen), 30 ng of CD14 and 10 ng of firefly luciferase-reporter construct driven by the NF-KB dependent E-selectin promoter (pELAM). 3 days after transfection, cells were challenged in triplicate with heat-treated or sterile-filtered saliva samples diluted 1:100 in DMEM/1%FCS. […] After 18 h, NF-κB-dependent reporter expression was measured using Promega Dual-Glo reagent. Fold induction of reporter was calculated relative to cells cultured in medium alone and a standard curve was prepared by plotting fold NF-κB induction vs concentration for each standard PAMP. […] For example, results presented as 200 ng/ml lipopeptide-equivalents indicate that 1 ml of saliva contains TLR2-stimulants with a capacity to stimulate TLR2-signalling equal to that of 200 ng Pam3CSK4. The coefficient of variance of the assay averaged ˜20%. […]
# [2] = test system: HEK-293 cells transfected with CD14 alone; experiment: NF-κB reporter in HEK-293 cells transfected with CD14 and reporter alone (no corresponding TLR); assay type: cell-based, human; conditions: data not shown
# human monocytes = experiment: Challenge of human monocytes with food extracts, TNF-α (L929 bioassay) / IL-6 (ELISA) secretion; assay type: cell-based; conditions: 25 μg/ml OxPAPC, filter-sterilised food extracts, 4 h
# Experimental: Venous blood was collected by venepuncture from consenting healthy human subjects according to the guidelines laid down in the Declaration of Helsinki and all procedures involving human subjects were approved by the University of Leicester College of Medicine Research Ethics Committee. Written informed consent was obtained from all subjects. Peripheral blood mononuclear cells (PBMC) were prepared by density gradient centrifugation at 800 g for 25 min using Histopaque-1077 (Sigma). Recovered cells were washed twice in PBS solution, resuspended in RPMI/10% fetal calf serum (FCS) (Sigma) and plated in 96-well plates at 4×10^5 cells per well. Monocytes were prepared from PBMC by plastic adherence (1 h at 37° C.), followed by gentle washing to remove non-adherent cells. Remaining monocytes were then challenged by adding a 1:20 dilution of each sterile-filtered food extract in tissue culture medium. After incubation at 37° C. for 4 h, supernatants were removed for assay of TNF-α content by L929-cell bioassay as described in Delahooke et al. (1995, Infect. Immun. 63, 840-846), or IL-6 levels were measured by ELISA (R&D) after 18 h.
# human TLR-5 = biological target: T2, human TLR-5 (Homo sapiens, UniProt O60602); experiment: TLR-transfection NF-κB reporter (pELAM) assay, HEK-293 cells transfected with TLR-5 and CD14; assay type: cell-based
# T2 construct: host or cells: HEK-293
# Experimental: as §1, §2
# TLR-stimulants were quantified in both whole heat-treated saliva (100° C. for 10 minutes), intended to reflect total bacteria-associated TLR-stimulants, and in saliva diluted 1:10 in PBS and filter-sterilised (0.22 μm, Acrodisc), intended to reflect soluble TLR-stimulants in human saliva. A recently developed bioassay based upon the measurement of NF-κB-dependent reporter activation in TLR-deficient HEK-293 cells transfected with human TLR2, TLR4/MD2 or TLR5, and callibrated with TLR2-, TLR4- or TLR5-stimulating standards (Erridge et al., 2010, Public Library of Science One 5, e9125), was used to quantify TLR-stimulants in saliva samples. […] After 18 h, NF-κB-dependent reporter expression was measured using Promega Dual-Glo reagent. Fold induction of reporter was calculated relative to cells cultured in medium alone and a standard curve was prepared by plotting fold NF-κB induction vs concentration for each standard PAMP. […]
# [3] = pH 1.0 with HCl 2 h or 3 h, then neutralised
# T1 sequence (O60603 21-784): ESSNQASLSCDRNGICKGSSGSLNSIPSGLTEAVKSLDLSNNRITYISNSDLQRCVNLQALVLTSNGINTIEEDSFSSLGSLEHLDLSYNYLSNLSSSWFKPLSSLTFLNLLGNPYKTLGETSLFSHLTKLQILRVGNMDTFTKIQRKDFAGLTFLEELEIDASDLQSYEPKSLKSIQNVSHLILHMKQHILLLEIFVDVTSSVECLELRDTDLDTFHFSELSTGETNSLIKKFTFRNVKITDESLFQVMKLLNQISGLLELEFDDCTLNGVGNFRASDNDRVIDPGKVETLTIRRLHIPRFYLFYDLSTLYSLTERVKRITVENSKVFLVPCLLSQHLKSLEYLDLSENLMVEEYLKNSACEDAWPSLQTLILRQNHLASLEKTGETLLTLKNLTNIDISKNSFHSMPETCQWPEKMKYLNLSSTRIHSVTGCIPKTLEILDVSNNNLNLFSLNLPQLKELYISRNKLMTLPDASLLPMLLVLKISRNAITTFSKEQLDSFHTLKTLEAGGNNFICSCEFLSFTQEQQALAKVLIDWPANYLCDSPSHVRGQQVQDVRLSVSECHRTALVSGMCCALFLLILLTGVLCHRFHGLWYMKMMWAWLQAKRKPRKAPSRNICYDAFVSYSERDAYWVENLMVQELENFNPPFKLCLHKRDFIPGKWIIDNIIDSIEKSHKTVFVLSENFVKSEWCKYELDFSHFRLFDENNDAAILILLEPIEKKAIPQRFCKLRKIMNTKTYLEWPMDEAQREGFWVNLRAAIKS
# T2 sequence (O60602 21-858): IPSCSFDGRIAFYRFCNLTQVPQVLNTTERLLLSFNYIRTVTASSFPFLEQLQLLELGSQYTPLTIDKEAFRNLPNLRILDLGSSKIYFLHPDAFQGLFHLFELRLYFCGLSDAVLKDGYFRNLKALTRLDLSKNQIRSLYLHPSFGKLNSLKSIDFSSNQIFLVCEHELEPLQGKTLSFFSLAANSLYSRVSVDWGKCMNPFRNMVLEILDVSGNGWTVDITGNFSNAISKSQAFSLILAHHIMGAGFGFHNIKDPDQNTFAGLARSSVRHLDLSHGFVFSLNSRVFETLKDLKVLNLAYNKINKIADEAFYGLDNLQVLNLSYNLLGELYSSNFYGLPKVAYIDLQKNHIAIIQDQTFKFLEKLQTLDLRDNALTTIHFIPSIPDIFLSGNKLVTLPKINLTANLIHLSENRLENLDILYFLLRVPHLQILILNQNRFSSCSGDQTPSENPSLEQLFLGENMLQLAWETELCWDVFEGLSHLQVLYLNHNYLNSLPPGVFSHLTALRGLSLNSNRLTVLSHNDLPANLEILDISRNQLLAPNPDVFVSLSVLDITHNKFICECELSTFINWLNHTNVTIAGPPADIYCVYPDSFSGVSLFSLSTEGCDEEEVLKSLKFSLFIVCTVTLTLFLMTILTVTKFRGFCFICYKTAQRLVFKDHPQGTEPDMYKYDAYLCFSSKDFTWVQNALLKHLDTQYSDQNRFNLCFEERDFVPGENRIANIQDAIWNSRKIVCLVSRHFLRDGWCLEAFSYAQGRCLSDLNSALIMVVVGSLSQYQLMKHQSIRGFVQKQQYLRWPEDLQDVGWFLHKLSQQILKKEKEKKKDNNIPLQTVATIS
molecule,measurement,setting,value
polyinosinic acid [PolyI:C],NF-κB activation in HEK-293 cells,[1],"stimulates NF-κB activation independently of TLR2, TLR4 or TLR5"
Pam3CSK4,Biological activity (TLR-2 signalling) after heating,"human TLR-2; 100 ng/ml, 100° C. for up to 2 hours",not measurably reduced
same,Minimum concentration to which transfected cells were sensitive,human TLR-2; TLR-2 transfected HEK-293,0.1 ng/mL
same,Capacity to stimulate TLR-2 after low pH treatment,human TLR-2; [3],did not affect
same,Biological activity (TLR-2) after protease treatment,human TLR-2; proteinase-K 37° C. 1 h,unaffected
same,"Activation of HEK-293 cells transfected with CD14 alone, or with non-corresponding TLRs",[2],unable to activate
oxidised palmitoyl-arachidonyl phosphocholine [OxPAPC],Inhibition of TLR2-dependent signalling induced by patient saliva samples,"human TLR-2; 25 μg/ml OxPAPC, filter-sterilised saliva 1:100, 18 h",significantly blocked
same,TNF-α secretion in response to each stimulant-containing foodstuff in presence of OxPAPC,human monocytes,completely abrogated
B1,Biological activity (TLR5 signalling) after heating,"human TLR-5; 100 ng/ml, 100° C., by 1 h",almost completely abolished
same,Biological activity (TLR5) after low pH treatment,human TLR-5; [3],increased
same,Bioactivity (TLR5) after protease treatment,human TLR-5; proteinase-K 37° C. 1 h,abolished
same,"Activation of HEK-293 cells transfected with CD14 alone, or with non-corresponding TLRs",[2],unable to activate
